{"source": "patent US11260065B2", "about": "“Storage-stable ready-to-use injectable formulations of thiotepa” (RK Pharma Solutions LLC, priority 2018, dated 2022)", "origin": "cited, not measured here", "key": {"[1]": {"conditions": "water and organic solvents"}, "[2]": {"conditions": "acid medium"}}, "data": [{"smiles": "S=P(N1CC1)(N1CC1)N1CC1", "note": "[Thiotepa, tris(1-aziridinyl)phosphine sulfide]", "values": [{"measurement": "Solubility", "setting": "[1]", "value": "soluble in water and organic solvents"}, {"measurement": "Stability", "setting": "[2]", "value": "unstable in acid medium"}]}]}
